row,Structure (SMILES),melting point
1,"O=C(O)CC/C(=N\OCc1ccc(OCc2cn3c(-c4ccccc4)cccc3n2)cc1)c1ccccc1 [Example 57, E-4-[4-(5-phenylimidazo[1,2-a]pyridin-2-ylmethoxy)benzyloxyimino]-4-phenylbutyric acid]",160 to 161 °C
2,"Cc1oc(-c2ccccc2)nc1COc1ccc(CO/N=C(\CCCCC(=O)O)c2ccccc2)cc1 [Example 60, E-6-[4-(5-methyl-2-phenyl-4-oxazolylmethoxy)benzyloxyimino]-6-phenylhexanoic acid]",112 to 113 °C
3,"Cc1oc(-c2ccccc2)nc1COc1ccc(CO/N=C(/CCCCC(=O)O)c2ccccc2)cc1 [Example 61, Z-6-[4-(5-methyl-2-phenyl-4-oxazolylmethoxy)benzyloxyimino]-6-phenylhexanoic acid]",101 to 102 °C
4,"Cc1oc(-c2ccccc2)nc1COc1ccc(CO/N=C2\CC(C(=O)O)c3ccccc32)cc1 (centres unmarked) [Example 62, E-3-[4-(5-methyl-2-phenyl-4-oxazolylmethoxy)benzyloxyimino]-1-indancarboxylic acid]",148 to 149 °C
5,"Cc1oc(-c2ccccc2)nc1COc1ccc(CO/N=C(\CCC(=O)O)c2ccccn2)cc1 [Example 64, E-4-[4-(5-methyl-2-phenyl-4-oxazolylmethoxy)benzyloxyimino]-4-(2-pyridyl)butyric acid]",116 to 117 °C
6,"Cc1oc(-c2ccccc2)nc1COc1ccc(CO/N=C(/CCC(=O)O)c2ccco2)cc1 [Example 68, Z-4-(2-furyl)-4-[4-(5-methyl-2-phenyl-4-oxazolylmethoxy)benzyloxyimino]butyric acid]",131 to 133 °C
7,"Cc1oc(-c2ccccc2)nc1COc1ccc(CO/N=C(\CCC(=O)O)c2cccnc2)cc1 [Example 70, E-4-[4-(5-methyl-2-phenyl-4-oxazolylmethoxy)benzyloxyimino]-4-(3-pyridyl)butyric acid]",158 to 159 °C
8,"Cc1oc(-c2ccccc2)nc1COc1ccc(CO/N=C(\CCC(=O)O)c2ccncc2)cc1 [Example 71, E-4-[4-(5-methyl-2-phenyl-4-oxazolylmethoxy)benzyloxyimino]-4-(4-pyridyl)butyric acid]",161 to 162 °C
9,"Cc1oc(-c2ccccc2)nc1COc1ccc(CO/N=C(\CCC(=O)O)c2ccco2)cc1 [Example 72, E-4-(2-furyl)-4-[4-(5-methyl-2-phenyl-4-oxazolylmethoxy)benzyloxyimino]butyric acid]",124 to 125 °C
10,"Cc1oc(-c2ccccc2)nc1COc1ccc(CO/N=C(\CCCCCCCC(=O)O)c2ccccc2)cc1 [Example 73, E-9-[4-(5-methyl-2-phenyl-4-oxazolylmethoxy)benzyloxyimino]-9-phenylnonanoic acid]",67 to 68 °C
11,"Cc1oc(-c2ccccc2)nc1COc1cccc(CO/N=C(\CCCCC(=O)O)c2ccccc2)c1 [Example 76, E-6-[3-(5-methyl-2-phenyl-4-oxazolylmethoxy)benzyloxyimino]-6-phenylhexanoic acid]",114 to 115 °C
12,"Cc1oc(-c2ccccc2)nc1COc1cccc(CO/N=C(\CCC(=O)O)c2ccccc2)c1 [Example 77, E-4-[3-(5-methyl-2-phenyl-4-oxazolylmethoxy)benzyloxyimino]-4-phenylbutyric acid]",108 to 109 °C
13,"Cc1oc(-c2ccccc2)nc1COc1ccc(CO/N=C(\CCCCC(N)=O)c2ccccc2)cc1 [Example 82, E-6-[4-(5-methyl-2-phenyl-4-oxazolylmethoxy)benzyloxyimino]-6-phenylhexanamide]",95 to 96 °C
14,"O=C(O)CC/C(=N\OCc1ccc(OCc2cc(-c3ccccc3)no2)cc1)c1ccccc1 [Example 87, E-4-phenyl-4-[4-(3-phenyl-5-isoxazolylmethoxy)benzyloxyimino]butyric acid]",96 to 97 °C
15,"O=C(O)CC/C(=N\OCc1ccc(OCc2cc(-c3ccccc3)on2)cc1)c1ccccc1 [Example 90, E-4-phenyl-4-[4-(5-phenyl-3-isoxazolylmethoxy)benzyloxyimino]butyric acid]",100 to 101 °C
16,"Cc1sc(-c2ccccc2)nc1COc1ccc(CO/N=C(\CCC(=O)O)c2ccccc2)cc1 [Example 91, E-4-[4-(5-methyl-2-phenyl-4-thiazolylmethoxy)benzyloxyimino]-4-phenylbutyric acid]",99 to 100 °C
17,"Cc1oc(-c2ccco2)nc1COc1ccc(CO/N=C(\CCC(=O)O)c2ccccc2)cc1 [Example 94, E-4-[4-[2-(2-furyl)-5-methyl-4-oxazolylmethoxy]benzyloxyimino]-4-phenylbutyric acid]",124 to 125 °C
18,"Cc1oc(-c2cccs2)nc1COc1ccc(CO/N=C(\CCC(=O)O)c2ccccc2)cc1 [Example 97, E-4-[4-[5-methyl-2-(2-thienyl)-4-oxazolylmethoxy]benzyloxyimino]-4-phenylbutyric acid]",142 to 143 °C
19,"O=C(O)CC/C(=N\OCc1ccc(OCc2ccccc2)cc1)c1ccccc1 [Example 98, E-4-(4-benzyloxybenzyloxyimino)-4-phenylbutyric acid]",86 to 87 °C

row,Structure (SMILES),melting point
1,"O=C(O)CC/C(=N\OCc1ccc(OCc2cn3ccccc3n2)cc1)c1ccccc1 [Example 101, E-4-[4-(imidazo[1,2-a]pyridin-2-ylmethoxy)benzyloxyimino]-4-phenylbutyric acid]",180 to 182 °C
2,"O=C(O)CC/C(=N\OCc1ccc(OCc2coc(-c3ccccc3)n2)cc1)c1ccccc1 [Example 102, E-4-phenyl-4-[4-(2-phenyl-4-oxazolylmethoxy)benzyloxyimino]butyric acid]",144 to 145 °C
3,"O=C(O)CC/C(=N\OCc1ccc(OCc2ccc3ccccc3n2)cc1)c1ccccc1 [Example 104, E-4-phenyl-4-[4-(2-quinolinylmethoxy)benzyloxyimino]butyric acid]",133 to 134 °C
4,"O=C(O)CC/C(=N\OCc1ccc(OCc2csc(-c3ccccc3)n2)cc1)c1ccccc1 [Example 108, E-4-phenyl-4-[4-(2-phenyl-4-thiazolylmethoxy)benzyloxyimino]butyric acid]",104 to 105 °C
5,"Cc1oc(-c2ccccc2)nc1COc1ccc(CO/N=C(/c2ccccc2)C(C)(C)C(=O)O)cc1 [Example 110, Z-2,2-dimethyl-3-[4-(5-methyl-2-phenyl-4-oxazolylmethoxy)benzyloxyimino]-3-phenylpropionic acid]",142 to 143 °C (dec.)
6,"Cc1oc(-c2ccccc2)nc1COc1ccc(CO/N=C(\CC(N)=O)c2ccccc2)cc1 [Example 111, E-3-[4-(5-methyl-2-phenyl-4-oxazolylmethoxy)benzyloxyimino]-3-phenylpropanamide]",164 to 165 °C
7,"Cc1oc(-c2ccccc2)nc1COc1ccc(CO/N=C(\CCCCCC(=O)O)c2ccccc2)cc1 [Example 115, E-7-[4-(5-methyl-2-phenyl-4-oxazolylmethoxy)benzyloxyimino]-7-phenylheptanoic acid]",84 to 85 °C
8,"COc1ccc(/C(CCCCCCC(=O)O)=N/OCc2ccc(OCc3nc(-c4ccccc4)oc3C)cc2)cc1 [Example 118, E-8-(4-methoxyphenyl)-8-[4-(5-methyl-2-phenyl-4-oxazolylmethoxy)benzyloxyimino]octanoic acid]",69 to 70 °C
9,"Cc1oc(-c2ccccc2)nc1COc1ccc(CO/N=C(\CCCCCCC(=O)O)c2ccc(Cl)cc2)cc1 [Example 123, E-8-(4-chlorophenyl)-8-[4-(5-methyl-2-phenyl-4-oxazolylmethoxy)benzyloxyimino]octanoic acid]",90 to 91 °C
10,"Cc1oc(-c2ccccc2)nc1COc1ccc(CO/N=C(/CCCCCCC(=O)O)c2ccc(Cl)cc2)cc1 [Example 124, Z-8-(4-chlorophenyl)-8-[4-(5-methyl-2-phenyl-4-oxazolylmethoxy)benzyloxyimino]octanoic acid]",54 to 57 °C
11,"Cc1oc(-c2ccccc2)nc1COc1ccc(CO/N=C(\CCCCCCC(=O)O)c2ccc(F)cc2)cc1 [Example 125, E-8-(4-fluorophenyl)-8-[4-(5-methyl-2-phenyl-4-oxazolylmethoxy)benzyloxyimino]octanoic acid]",79 to 80 °C
12,"Cc1oc(-c2ccccc2)nc1COc1ccc(CO/N=C(/CCCCCCC(=O)O)c2ccc(F)cc2)cc1 [Example 126, Z-8-(4-fluorophenyl)-8-[4-(5-methyl-2-phenyl-4-oxazolylmethoxy)benzyloxyimino]octanoic acid]",56 to 57 °C
13,"O=C(O)CCCCCC/C(=N\OCc1ccc(OCc2noc(-c3ccccc3)n2)cc1)c1ccccc1 [Example 128, E-8-phenyl-8-[4-(5-phenyl-1,2,4-oxadiazol-3-ylmethoxy)benzyloxyimino]octanoic acid]",76 to 77 °C
14,"Cc1oc(-c2ccco2)nc1COc1ccc(CO/N=C(\CCCCCCC(=O)O)c2ccccc2)cc1 [Example 129, E-8-[4-[2-(2-furyl)-5-methyl-4-oxazolylmethoxy]benzyloxyimino]-8-phenyloctanoic acid]",75 to 77 °C
15,"Cc1oc(-c2cccs2)nc1COc1ccc(CO/N=C(\CCCCCCC(=O)O)c2ccccc2)cc1 [Example 130, E-8-[4-[5-methyl-2-(2-thienyl)-4-oxazolylmethoxy]benzyloxyimino]-8-phenyloctanoic acid]",106 to 108 °C
16,"Cc1oc(-c2ccco2)nc1COc1ccc(CO/N=C(\CCCCC(=O)O)c2ccccc2)cc1 [Example 132, E-6-[4-[2-(2-furyl)-5-methyl-4-oxazolylmethoxy]benzyloxyimino]-6-phenylhexanoic acid]",112 to 113 °C
17,"Cc1oc(-c2cccs2)nc1COc1ccc(CO/N=C(\CCCCC(=O)O)c2ccccc2)cc1 [Example 135, E-6-[4-[5-methyl-2-(2-thienyl)-4-oxazolylmethoxy]benzyloxyimino]-6-phenylhexanoic acid]",101 to 102 °C
18,"O=C(O)CCCC/C(=N\OCc1ccc(OCc2noc(-c3ccccc3)n2)cc1)c1ccccc1 [Example 136, E-6-phenyl-6-[4-(5-phenyl-1,2,4-oxadiazol-3-ylmethoxy)benzyloxyimino]hexanoic acid]",88 to 89 °C
19,"O=C(O)CCCC/C(=N\OCc1ccc(OCc2nc(-c3ccccc3)no2)cc1)c1ccccc1 [Example 138, E-6-phenyl-6-[4-(3-phenyl-1,2,4-oxadiazol-5-ylmethoxy)benzyloxyimino]hexanoic acid]",91 to 92 °C

# Source: patent publication US6924300B2, “Oxyiminoalkanoic acid derivatives” (Takeda Chemical Industries, Ltd., priority 1998, dated 2005)
